{"source": "patent USRE38330E1", "about": "“Preventing and reversing advanced glycosylation endproducts” (Alteon Inc., priority 1995, dated 2003)", "test_system": "fixed protein (gelatin, i.e., collagen) surface", "test": "Surface browning experiment on gelatin/paper disks in glucose-6-phosphate", "settings": "100 mM glucose-6-phosphate, one week at 50° C., final concentration of 0.04% chlorhexidine (Peridex)", "description": "To further study the ability of inhibitors of nonenzymatic browning to prevent the discoloration of protein on a surface, such as that which occurs on the tooth surface, the following surface browning experiment is performed. As a substitute for a pellicle-covered tooth surface, unexposed and developed photographic paper is used to provide a fixed protein (gelatin, i.e., collagen) surface on a paper backing. […] Glucose-6-phosphate is a sugar capable of participating in nonenzymatic browning at a more rapid rate than glucose. In addition to the glucose-6-phosphate, chlorhexidine and/or a compound of Formula I are included. After incubation, the gelatin/paper disks are rinsed with water, observed for brown color, and photographed.", "data": [{"compound": "[H]/N=C(\\N/C(=N/[H])NCCCCCCNC(=N)NC(=N)Nc1ccc(Cl)cc1)Nc1ccc(Cl)cc1", "note": "[chlorhexidine]", "values": [{"measurement": "brown color of gelatin/paper disks", "value": "significant browning"}]}]}
